Laboratory results: patent publication US11000033B2, “Ketone or oxime compound, and herbicide” (NISSAN CHEMICAL CORPORATION, priority 2014, dated 2021)

How the values were obtained:
Type in all cases: in vivo
rapeseed = assay: Test Example 5: effect on crop by foliage application, plastic box (symbol g); settings: 320 g/ha, 3 weeks after application
Summary of the method: (§1)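 Sterilized diluvial soil, plastic box (21 × 13 × 7 cm); spot sowing, ~1.5 cm soil cover; greenhouse 25–30° C.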

Chenopodium album = assay: Test Example 4: herbicidal effect by soil treatment (symbol O); settings: application herbicide amount 320 g/ha
Summary of the method: (§2)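 Seeds were sown in sterilized diluvial soil, covered with about 1.5 cm of soil, and the soil surface was sprayed with a water-diluted emulsion of the compound at a predetermined rate. Plants grew in a greenhouse at 25° C. to 30° C.; effects were scored visually 3 weeks after application.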

[1] = system: directly sowed rice plant; assay: Test Example 3: effect on crop by foliage application, Wagner pot (symbol b); settings: application herbicide amount 320 g/ha
Summary of the method: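 Wagner pot (1/10000 are), alluvial soil, submerged 0.1–0.5 cm; sown E. crus-galli var. crus-galli, L. chinensis, C. difformis, rice; greenhouse 25–30 °C.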

[2] = system: Echinochloa crus-galli var. crus-galli; assay: Test Example 5: herbicidal effect by foliage application, plastic box (symbol H); settings: 320 g/ha, 3 weeks after application
Summary of the method: (§3)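 Post-emergence spray; diluvial soil (sterilized), ~1.5 cm seed cover; greenhouse 25–30° C; 14-day-old plants; water-diluted emulsion at predetermined dose; visual score at 3 wk post-treatment.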

Setaria viridis [3] = assay: Test Example 4: herbicidal effect by soil treatment (symbol G); settings: application herbicide amount 320 g/ha
Summary of the method: as §2

Abutilon theophrasti [4] = assay: Test Example 4: herbicidal effect by soil treatment (symbol M); settings: application herbicide amount 320 g/ha
Summary of the method: as §2

Setaria viridis [5] = assay: Test Example 5: herbicidal effect by foliage application, plastic box (symbol G); settings: 320 g/ha, 3 weeks after application
Summary of the method: as §3

Avena fatua = assay: Test Example 5: herbicidal effect by foliage application, plastic box (symbol I); settings: 320 g/ha, 3 weeks after application
Summary of the method: as §3

transplanted rice plant = assay: Test Example 1: effect on crop, application before weed generation in submerged conditions (symbol a); settings: application herbicide amount 320 g/ha
Summary of the method: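 Rice at 2.5 leaf stage transplanted into submerged soil (4 cm depth) sown with three weed species; herbicide applied before weed emergence.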

Galium spurium = assay: Test Example 4: herbicidal effect by soil treatment (symbol Q); settings: application herbicide amount 320 g/ha
Summary of the method: as §2

Stellaria media [6] = assay: Test Example 4: herbicidal effect by soil treatment (symbol P); settings: application herbicide amount 320 g/ha
Summary of the method: as §2

Digitaria ciliaris = assay: Test Example 4: herbicidal effect by soil treatment (symbol F); settings: application herbicide amount 320 g/ha
Summary of the method: as §2

rice plant = assay: Test Example 5: effect on crop by foliage application, plastic box (symbol b); settings: 320 g/ha, 3 weeks after application
Summary of the method: as §1

beet = assay: Test Example 5: effect on crop by foliage application, plastic box (symbol f); settings: 320 g/ha, 3 weeks after application
Summary of the method: as §1

Amaranthus retroflexus = assay: Test Example 4: herbicidal effect by soil treatment (symbol N); settings: application herbicide amount 320 g/ha
Summary of the method: as §2

[7] = system: Echinochloa crus-galli var. crus-galli; assay: Test Example 3: herbicidal effect by foliage application, Wagner pot (symbol H); settings: application herbicide amount 320 g/ha
Summary of the method: (§4)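 Foliar spray of water-diluted emulsion formulation at a predetermined herbicide amount onto 14-day-old plants in flooded alluvial soil (water depth 0.1–0.5 cm), greenhouse 25–30 °C; rice sown alongside. Scored 3 wk post-application on set criteria.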

Apera spica-venti [8] = assay: Test Example 5: herbicidal effect by foliage application, plastic box (symbol L); settings: 320 g/ha, 3 weeks after application
Summary of the method: as §3

Abutilon theophrasti [9] = assay: Test Example 5: herbicidal effect by foliage application, plastic box (symbol M); settings: 320 g/ha, 3 weeks after application
Summary of the method: as §3

Apera spica-venti [10] = assay: Test Example 4: herbicidal effect by soil treatment (symbol L); settings: application herbicide amount 320 g/ha
Summary of the method: as §2

Leptochloa chinensis = assay: Test Example 3: herbicidal effect by foliage application, Wagner pot (symbol D); settings: application herbicide amount 320 g/ha
Summary of the method: as §4

Stellaria media [11] = assay: Test Example 5: herbicidal effect by foliage application, plastic box (symbol P); settings: 320 g/ha, 3 weeks after application
Summary of the method: as §3

Lolium multiflorum Lam. = assay: Test Example 4: herbicidal effect by soil treatment (symbol K); settings: application herbicide amount 320 g/ha
Summary of the method: as §2

Veronica persica = assay: Test Example 4: herbicidal effect by soil treatment (symbol R); settings: application herbicide amount 320 g/ha
Summary of the method: as §2

| Structure (SMILES) | effect on crop b (directly sowed rice plant), grade 0-5 [1] | Effect grade on crop, a: transplanted rice plant (transplanted rice plant) | herbicidal effect on H (Echinochloa crus-galli var. crus-galli), grade 0-5 [7] | herbicidal effect on D (Leptochloa chinensis), grade 0-5 (Leptochloa chinensis) | g: rapeseed, effect on crop (criteria of Test Example 1) (rapeseed) | H: Echinochloa crus-galli var. crus-galli, herbicidal effect (criteria of Test Example 1) [2] | Herbicidal effect grade, G: Setaria viridis (Setaria viridis [3]) | Herbicidal effect grade, M: Abutilon theophrasti (Abutilon theophrasti [4]) | G: Setaria viridis, herbicidal effect (criteria of Test Example 1) (Setaria viridis [5]) | I: Avena fatua, herbicidal effect (criteria of Test Example 1) (Avena fatua) | Herbicidal effect grade, Q: Galium spurium (Galium spurium) | Herbicidal effect grade, P: Stellaria media (Stellaria media [6]) | Herbicidal effect grade, F: Digitaria ciliaris (Digitaria ciliaris) | b: directly sowed rice plant, effect on crop (criteria of Test Example 1) (rice plant) | f: beet, effect on crop (criteria of Test Example 1) (beet) | Herbicidal effect grade, N: Amaranthus retroflexus (Amaranthus retroflexus) | L: Apera spica-venti, herbicidal effect (criteria of Test Example 1) (Apera spica-venti [8]) | M: Abutilon theophrasti, herbicidal effect (criteria of Test Example 1) (Abutilon theophrasti [9]) | Herbicidal effect grade, L: Apera spica-venti (Apera spica-venti [10]) | P: Stellaria media, herbicidal effect (criteria of Test Example 1) (Stellaria media [11]) | also measured |
| --- | --- | --- | --- | --- | --- | --- | --- | --- | --- | --- | --- | --- | --- | --- | --- | --- | --- | --- | --- | --- | --- |
| COC(=O)CON=C(C)CC1CC(O)=C(c2c(C)cc(C)cc2C)C1=O (stereo not drawn) [1-023] | 4 (Herbicidal ratio of 70% or higher and lower than 90%) | 1 (Herbicidal ratio of 5% or higher and lower than 20%) | 5 (Herbicidal ratio of 90% or more (almost completely withered)) | 5 (Herbicidal ratio of 90% or more (almost completely withered)) | – | – | – | – | – | – | – | – | – | – | – | – | – | – | – | – | g: rapeseed, effect on crop grade (rapeseed): 2 (Herbicidal ratio of 20% or higher and lower than 40%); O (Chenopodium album) herbicidal effect grade (Chenopodium album): 0 (Herbicidal ratio of 5% or lower (almost no effect)); H: Echinochloa crus-galli var. crus-galli, herbicidal effect grade [2]: 4 (Herbicidal ratio of 70% or higher and lower than 90%); G (Setaria viridis) herbicidal effect grade (Setaria viridis [3]): 3 (Herbicidal ratio of 40% or higher and lower than 70%); M (Abutilon theophrasti) herbicidal effect grade (Abutilon theophrasti [4]): 0 (Herbicidal ratio of 5% or lower (almost no effect)); G: Setaria viridis, herbicidal effect grade (Setaria viridis [5]): 1 (Herbicidal ratio of 5% or higher and lower than 20%); I: Avena fatua, herbicidal effect grade (Avena fatua): 1 (Herbicidal ratio of 5% or higher and lower than 20%); Q (Galium spurium) herbicidal effect grade (Galium spurium): 0 (Herbicidal ratio of 5% or lower (almost no effect)); P (Stellaria media) herbicidal effect grade (Stellaria media [6]): 0 (Herbicidal ratio of 5% or lower (almost no effect)); F (Digitaria ciliaris) herbicidal effect grade (Digitaria ciliaris): 4 (Herbicidal ratio of 70% or higher and lower than 90%); b: directly sowed rice plant, effect on crop grade (rice plant): 4 (Herbicidal ratio of 70% or higher and lower than 90%); f: beet, effect on crop grade (beet): 0 (Herbicidal ratio of 5% or lower (almost no effect)); N (Amaranthus retroflexus) herbicidal effect grade (Amaranthus retroflexus): 0 (Herbicidal ratio of 5% or lower (almost no effect)); L: Apera spica-venti, herbicidal effect grade (Apera spica-venti [8]): 4 (Herbicidal ratio of 70% or higher and lower than 90%); M: Abutilon theophrasti, herbicidal effect grade (Abutilon theophrasti [9]): 0 (Herbicidal ratio of 5% or lower (almost no effect)); L (Apera spica-venti) herbicidal effect grade (Apera spica-venti [10]): 4 (Herbicidal ratio of 70% or higher and lower than 90%); P: Stellaria media, herbicidal effect grade (Stellaria media [11]): 0 (Herbicidal ratio of 5% or lower (almost no effect)); K (Lolium multiflorum Lam.) herbicidal effect grade (Lolium multiflorum Lam.): 3 (Herbicidal ratio of 40% or higher and lower than 70%) |
| CC(=O)CC1CC(O)=C(c2c(C)cc(Br)cc2C)C1=O (stereo not drawn) [7-002] | 5 (Herbicidal ratio of 90% or more (almost completely withered)) | 2 (Herbicidal ratio of 20% or higher and lower than 40%) | 5 (Herbicidal ratio of 90% or more (almost completely withered)) | 5 (Herbicidal ratio of 90% or more (almost completely withered)) | 0 (Herbicidal ratio of 5% or lower (almost no effect)) | 5 (Herbicidal ratio of 90% or more (almost completely withered)) | 4 (Herbicidal ratio of 70% or higher and lower than 90%) | 0 (Herbicidal ratio of 5% or lower (almost no effect)) | 3 (Herbicidal ratio of 40% or higher and lower than 70%) | 4 (Herbicidal ratio of 70% or higher and lower than 90%) | 0 (Herbicidal ratio of 5% or lower (almost no effect)) | 0 (Herbicidal ratio of 5% or lower (almost no effect)) | 5 (Herbicidal ratio of 90% or more (almost completely withered)) | 5 (Herbicidal ratio of 90% or more (almost completely withered)) | 0 (Herbicidal ratio of 5% or lower (almost no effect)) | 0 (Herbicidal ratio of 5% or lower (almost no effect)) | 3 (Herbicidal ratio of 40% or higher and lower than 70%) | 0 (Herbicidal ratio of 5% or lower (almost no effect)) | 5 (Herbicidal ratio of 90% or more (almost completely withered)) | 0 (Herbicidal ratio of 5% or lower (almost no effect)) | Herbicidal effect grade, O: Chenopodium album (Chenopodium album): 0 (Herbicidal ratio of 5% or lower (almost no effect)); Herbicidal effect grade, K: Lolium multiflorum Lam. (Lolium multiflorum Lam.): 5 (Herbicidal ratio of 90% or more (almost completely withered)) |
| CC(=O)CC1CC(O)=C(c2c(C)cc(OCC(F)(F)F)cc2C)C1=O (stereo not drawn) [7-015] | 5 (Herbicidal ratio of 90% or more (almost completely withered)) | 5 (Herbicidal ratio of 90% or more (almost completely withered)) | 5 (Herbicidal ratio of 90% or more (almost completely withered)) | 5 (Herbicidal ratio of 90% or more (almost completely withered)) | 5 (Herbicidal ratio of 90% or more (almost completely withered)) | 5 (Herbicidal ratio of 90% or more (almost completely withered)) | 5 (Herbicidal ratio of 90% or more (almost completely withered)) | 0 (Herbicidal ratio of 5% or lower (almost no effect)) | 5 (Herbicidal ratio of 90% or more (almost completely withered)) | 5 (Herbicidal ratio of 90% or more (almost completely withered)) | 0 (Herbicidal ratio of 5% or lower (almost no effect)) | 0 (Herbicidal ratio of 5% or lower (almost no effect)) | 5 (Herbicidal ratio of 90% or more (almost completely withered)) | 5 (Herbicidal ratio of 90% or more (almost completely withered)) | 0 (Herbicidal ratio of 5% or lower (almost no effect)) | 0 (Herbicidal ratio of 5% or lower (almost no effect)) | 5 (Herbicidal ratio of 90% or more (almost completely withered)) | 2 (Herbicidal ratio of 20% or higher and lower than 40%) | 4 (Herbicidal ratio of 70% or higher and lower than 90%) | 1 (Herbicidal ratio of 5% or higher and lower than 20%) | Herbicidal effect grade, R: Veronica persica (Veronica persica): 0 (Herbicidal ratio of 5% or lower (almost no effect)); Herbicidal effect grade, K: Lolium multiflorum Lam. (Lolium multiflorum Lam.): 5 (Herbicidal ratio of 90% or more (almost completely withered)) |
